{
  "source": "patent US8906925B2",
  "about": "“Pyrido[4,3-B]indoles containing rigid moieties” (Medivation Technologies, Inc., priority 2008, dated 2014)",
  "key": {"C57B1I6J mice": {"system": "C57B1I6J mice", "test": "Catalepsy in the mouse bar test (EPS model)", "type": "in vivo", "conditions": "2 mg/kg i.p.", "excerpt": "Antipsychotic drugs are known to induce extrapyramidal syndrome (EPS) in animals and in humans. An animal model considered to be predictive of EPS is the mouse bar test, which measures cataleptic responses to pharmacological agents.\nMale C57B1I6J mice from Jackson Laboratories (Bar Harbor, Me.) were used. Mice were received at 6-weeks of age. Upon receipt, mice were assigned unique identification numbers (tail marked) and were group housed with 4 mice/cage in OptiMICE ventilated cages. All animals remained housed in groups of four during the remainder of the study. All mice were acclimated to the colony room for at least two weeks prior to testing and were subsequently tested at an average age of 8 weeks. During the period of acclimation, mice were examined on a regular basis, handled, and weighed to assure adequate health and suitability. Animals were maintained on a 12 h/12 h light/dark cycle. The room temperature was maintained between 20 and 23° C. with a relative humidity maintained between 30% and 70%. Chow and water were provided ad libitum for the duration of the study. In each test, animals were randomly assigned across treatment groups.\nThe following compounds were used for this study. 1) Compound No. 83, 88 or 90 (0.03, 0.1, 0.3, 1, 3, 10, 30) was dissolved in 3% Tween in PBS and administered orally at a dose volume of 10 mL/kg; 2) Haloperidol (2 mg/kg) was dissolved in 10% DMSO and administered i.p. at a dose volume of 10 mL/kg.\nThe front paws of a mouse were placed on a horizontal metal bar raised 2″ above a Plexiglas platform and time was recorded for up to 30 seconds per trial. The test ended when the animal's front paws returned to the platform or after 30 seconds. The test was repeated three times and the average of the three trials was reported as the intensity index of catalepsy. Antipsychotic agents such as haloperidol cause rigidity as a side effect. Animals treated with haloperidol will hold on to the bar without moving for several minutes. Mice were brought to the activity experimental room for at least 1 h acclimation to the experimental room conditions prior to testing. Following injection of either vehicle, Compound No. 83, 88 or 90, or haloperidol, catalepsy was assessed at 3 time points: 30 min, 1 h, and 3 h. At the end of each trial, the apparatus was thoroughly cleaned with 70% ethanol.\nData were analyzed by analysis of variance (ANOVA) followed by post-hoc comparisons with Fisher Tests when appropriate. An effect was considered significant if p<0.05."}, "histamine receptor H1 [1]": {"molecular_target": "T1, histamine receptor H1 (Homo sapiens, UniProt P35367)", "T1 sequence (P35367 whole entry)": "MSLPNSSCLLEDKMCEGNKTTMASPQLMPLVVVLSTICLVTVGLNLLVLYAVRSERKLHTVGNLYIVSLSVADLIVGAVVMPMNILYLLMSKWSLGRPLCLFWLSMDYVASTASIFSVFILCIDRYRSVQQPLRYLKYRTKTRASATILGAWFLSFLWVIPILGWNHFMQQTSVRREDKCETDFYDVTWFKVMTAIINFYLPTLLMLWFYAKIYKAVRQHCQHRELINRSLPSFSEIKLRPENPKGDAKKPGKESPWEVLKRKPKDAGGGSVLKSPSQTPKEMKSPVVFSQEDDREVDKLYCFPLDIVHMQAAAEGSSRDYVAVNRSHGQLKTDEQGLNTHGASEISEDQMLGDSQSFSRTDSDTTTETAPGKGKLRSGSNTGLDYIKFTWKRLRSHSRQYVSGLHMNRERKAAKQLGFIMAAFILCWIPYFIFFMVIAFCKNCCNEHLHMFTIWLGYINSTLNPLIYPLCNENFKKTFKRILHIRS", "test": "Histamine H1 radioligand binding ([3H]Pyrilamine)", "in_short": "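Values are percent inhibition of specific [3H]pyrilamine (1.2 nM) binding with compounds at ≤1 μM (1% DMSO vehicle); 180 min incubation at 25 °C, pH 7.4 Tris buffer, on CHO-expressed human H1 receptor; 1 μM pyrilamine defined nonspecific binding, bound ligand counted after filtration.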"}, "histamine receptor H1 [2]": {"molecular_target": "T1, histamine receptor H1", "test": "Inhibition of binding of a ligand (Pyrilamine) to histamine receptor H1", "conditions": "as compared to the unsubstituted vinyl counterpart (106 vs compound 415; 85 vs compound 95)", "experimental": "The number and extent of undesirable side effects increases with increasing affinity for the H1 receptor Thus, in one aspect, compounds of the formulae herein display reduced, low or no affinity to histamine receptor H1. […] Inhibition of binding of a ligand to H1 for all variations detailed herein is determined by a suitable assay known in the art such as the assay described herein. […] In one variation, compounds of the formulae herein inhibit binding of a ligand to H1 by between about 50% to about 80%. […] In one variation, compounds of the formulae herein inhibit binding of Pyrilamine to H1 as determined in the assay described herein. In a further variation, percent inhibition of binding to H1 is measured by assays detailed herein.\nThe binding properties of compounds disclosed herein to a panel of aminergic G protein-coupled receptors including adrenergic receptors, dopamine receptors, serotonin receptors, histamine receptors and an imidazoline receptor may be determined. Binding properties may be assessed by methods known in the art, such as competitive binding assays. In one variation, compounds are assessed by the binding assays detailed herein. […]\nIn one aspect, DDT compounds display low affinity to histamine receptor H1. […] Inhibition of binding of a ligand to H1 for all variations detailed herein is determined by a suitable assay known in the art such as the assay described herein. […]"}, "[3]": {"molecular_target": "human dopamine D2L receptor (Homo sapiens, UniProt P14416)", "sequence (P14416 whole entry)": "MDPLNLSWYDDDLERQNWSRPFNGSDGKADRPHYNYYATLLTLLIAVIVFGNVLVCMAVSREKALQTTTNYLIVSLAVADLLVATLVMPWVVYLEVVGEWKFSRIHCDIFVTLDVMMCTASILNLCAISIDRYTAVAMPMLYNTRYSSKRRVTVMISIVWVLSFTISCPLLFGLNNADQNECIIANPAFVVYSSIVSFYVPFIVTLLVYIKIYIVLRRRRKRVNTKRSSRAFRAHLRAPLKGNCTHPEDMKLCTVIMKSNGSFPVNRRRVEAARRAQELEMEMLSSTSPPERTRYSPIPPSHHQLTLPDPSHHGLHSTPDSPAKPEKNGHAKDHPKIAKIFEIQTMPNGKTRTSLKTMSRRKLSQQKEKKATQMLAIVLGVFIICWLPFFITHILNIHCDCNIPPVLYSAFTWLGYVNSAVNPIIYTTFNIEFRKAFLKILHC", "test": "Dopamine D2L radioligand binding ([3H]Spiperone)", "conditions": "percent inhibition of specific binding, compound at 1 μM", "excerpt": "Non-specific binding was estimated in the presence of […] Haloperidol. Receptor proteins were filtered and washed, the filters were then counted to determine [^3H]Spiperone specifically bound. […] Biochemical assay results are presented as the percent inhibition of specific binding in Table 9."}, "[4]": {"molecular_target": "T2, human recombinant serotonin (5-Hydroxytryptamine) 5-HT6 receptor (Homo sapiens, UniProt P50406)", "T2 construct": "expressed in transfected cells; host or cells: human HeLa cells", "T2 sequence (P50406 whole entry)": "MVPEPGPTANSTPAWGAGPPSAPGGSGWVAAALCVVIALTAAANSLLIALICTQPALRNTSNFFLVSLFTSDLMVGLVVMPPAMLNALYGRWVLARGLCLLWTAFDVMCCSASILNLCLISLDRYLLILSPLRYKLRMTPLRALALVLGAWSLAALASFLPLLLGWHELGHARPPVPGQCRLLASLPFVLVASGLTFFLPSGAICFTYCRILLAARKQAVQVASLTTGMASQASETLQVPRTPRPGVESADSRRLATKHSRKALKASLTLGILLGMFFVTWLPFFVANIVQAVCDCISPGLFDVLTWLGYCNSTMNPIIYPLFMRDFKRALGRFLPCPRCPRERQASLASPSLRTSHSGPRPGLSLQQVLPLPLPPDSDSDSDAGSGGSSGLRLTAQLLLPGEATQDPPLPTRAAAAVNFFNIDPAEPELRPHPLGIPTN", "test": "Serotonin 5-HT6 radioligand binding ([3H]LSD)", "experimental": "Compounds of the invention were incubated with 1.5 nM [3H]Lysergic acid diethylamide (LSD) for 120 min. at 37° C. […] Receptor proteins were filtered and washed, the filters were then counted to determine [3H]LSD specifically bound. Compounds were screened at 1 μM or lower, using 1% DMSO as vehicle. Biochemical assay results are presented as the percent inhibition of specific binding in Table 10."}, "[5]": {"molecular_target": "T3, human recombinant serotonin (5-Hydroxytryptamine) 5-HT2C receptor (Homo sapiens, UniProt P28335)", "T3 construct": "expressed in transfected cells; host or cells: Chinese hamster ovary (CHO-K1) cells", "T3 sequence (P28335 33-458)": "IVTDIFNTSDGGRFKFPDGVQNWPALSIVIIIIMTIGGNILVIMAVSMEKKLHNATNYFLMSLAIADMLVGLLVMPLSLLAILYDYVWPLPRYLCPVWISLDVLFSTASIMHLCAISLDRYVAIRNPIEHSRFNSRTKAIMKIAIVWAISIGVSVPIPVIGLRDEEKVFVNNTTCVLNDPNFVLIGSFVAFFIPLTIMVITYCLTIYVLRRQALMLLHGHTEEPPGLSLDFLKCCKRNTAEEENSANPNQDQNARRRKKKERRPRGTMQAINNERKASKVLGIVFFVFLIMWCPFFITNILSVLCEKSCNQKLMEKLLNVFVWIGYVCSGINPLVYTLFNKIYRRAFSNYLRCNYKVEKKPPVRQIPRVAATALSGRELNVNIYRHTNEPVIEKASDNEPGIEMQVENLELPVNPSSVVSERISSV", "test": "Serotonin 5-HT2C radioligand binding ([3H]Mesulergine)", "conditions": "compound at 0.1 μM; read-out: Inhibition of ligand binding, Serotonin 5-HT2C (percent inhibition of specific binding)", "in_short": "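Compounds tested at 1 μM or lower (1% DMSO vehicle) for displacement of 1 nM [3H]Mesulergine over 60 min at 25° C. Specific binding determined by filtration counting, with 1 μM Mianserin defining non-specific binding; values are percent inhibition.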"}, "[6]": {"molecular_target": "T4, human recombinant serotonin (5-Hydroxytryptamine) 5-HT2A receptor (Homo sapiens, UniProt P28223)", "T4 construct": "expressed in transfected cells; host or cells: Chinese hamster ovary (CHO-K1) cells", "T4 sequence (P28223 whole entry)": "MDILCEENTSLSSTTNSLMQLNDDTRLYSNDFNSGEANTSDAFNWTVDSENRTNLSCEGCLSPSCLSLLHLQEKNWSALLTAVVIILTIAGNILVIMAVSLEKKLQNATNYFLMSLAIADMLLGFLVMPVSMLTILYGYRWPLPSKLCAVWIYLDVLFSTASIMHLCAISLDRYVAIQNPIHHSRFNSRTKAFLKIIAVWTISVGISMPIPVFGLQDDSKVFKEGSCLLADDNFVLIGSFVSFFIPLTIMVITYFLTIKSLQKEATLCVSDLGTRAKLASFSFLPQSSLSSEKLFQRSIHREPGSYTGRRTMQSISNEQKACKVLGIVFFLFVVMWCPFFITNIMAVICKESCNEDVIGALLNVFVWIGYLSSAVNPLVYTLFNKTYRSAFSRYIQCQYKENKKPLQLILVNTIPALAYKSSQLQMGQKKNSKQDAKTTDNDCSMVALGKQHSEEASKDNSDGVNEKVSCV", "test": "Serotonin 5-HT2A radioligand binding ([3H]Ketanserin)", "experimental": "Compounds of the invention were incubated with 0.5 nM [^3H]Ketanserin for 60 min. at 25° C. Non-specific binding was estimated in the presence of 1 μM Mianserin. Receptor proteins were filtered and washed, the filters were then counted to determine [^3H]Ketanserin specifically bound."}, "male Wistar rat": {"system": "male Wistar rat", "test": "Conditioned avoidance response (CAR) model", "type": "in vivo", "conditions": "0.3 mg/kg, s.c.", "experimental": "All currently approved antipsychotic agents (typical and atypical) are known to have the ability to selectively suppress conditioned avoidance response (CAR) behavior in the rat. This evidence makes CAR one of the primary tests to assess antipsychotic activity of novel compounds.\nThe effects of Compound Nos. 83, 88 and 90, at concentrations including 0.1, 0.3, 1, 3, 10 and 20 mg/kg, p.o., in the conditioned avoidance response model were assessed in the male Wistar rat. Risperidone (0.3 mg/kg, s.c.) was used in the present study as a positive reference compound.\nFor each testing session, animals were first placed for a 4-min. habituation period in a shuttlebox with an electrified grid floor. Then, rats were submitted to 30 trials spaced by intertribal intervals varying at random between 20 and 30 sec. Each trial consisted of a 10-sec. light stimulus (conditioned stimulus, CS) followed by a 10-sec. electric foot shock (unconditioned stimulus, US) in presence of the light presented in the compartment where the rat is located. If the animal moved to the other compartment during the initial 10-sec. of the trial, the light was terminated (no shock was delivered) and the response was recorded as an avoidance response. If the rat changed compartment during the foot shock, the light and the shock were terminated and the response was recorded as an unconditioned response. […] If a response was made during an intertrial interval, the response was recorded as an intertrial crossing. Training was performed 5 days per week with one session of 30 trials per day, until rats reached the performance criterion of 80% of avoidance response on at least two consecutive daily sessions. […] A minimal wash-out period of 48 hours was allowed between 2 treatments. During the wash-out period, animals were trained until they recovered an avoidance performance of at least 80%.\nStatistical analysis was performed using a Friedman two-way ANOVA by ranks followed by the Wilcoxon matched-pairs signed-ranks test to test each dose of the test compound administered versus vehicle control treated rats."}},
  "data": [
    {"smiles": "O=C(CCCN1CCC(O)(c2ccc(Cl)cc2)CC1)c1ccc(F)cc1", "note": "[Haloperidol, haloperidol, reference compound]", "values": [
      {"measurement": "catalepsy (bar test)", "setting": "C57B1I6J mice", "result": "increased catalepsy"}
    ]},
    {"smiles": "C/C(=C\\n1c2c(c3cc(C)ccc31)CN(C)CC2)c1ccc(C)nc1", "note": "[compound 85, (E)-2,3,4,5-tetrahydro-2,8-dimethyl-5-(2-(6-methylpyridin-3-yl)prop-1-enyl)-1H-pyrido[4,3-b]indole]", "values": [
      {"measurement": "Histamine Binding (1 μM) H1, percent inhibition of specific binding", "setting": "histamine receptor H1 [1]; 1 μM", "result": 13, "unit": "%"},
      {"measurement": "inhibition at 1 µM", "setting": "histamine receptor H1 [1]; read-out: Histamine Binding (1 μM) H1, percent inhibition of specific binding, 1 μM", "result": 9, "unit": "%"},
      {"measurement": "binding affinity to H1", "setting": "histamine receptor H1 [2]", "result": "lower binding affinity to H1"},
      {"measurement": "Inhibition of ligand binding, Dopamine D2L", "setting": "[3]; 1 µM", "result": 57, "unit": "%"},
      {"measurement": "inhibition at 1 µM", "setting": "[3]; read-out: Inhibition of ligand binding, Dopamine D2L", "result": 43, "unit": "%"},
      {"measurement": "Inhibition of ligand binding, Serotonin 5-HT6 (percent inhibition of specific binding)", "setting": "[4]; compound at 0.1 μM, 0.1 µM", "result": 19, "unit": "%"},
      {"measurement": "inhibition at 0.1 µM", "setting": "[4]; compound at 0.1 μM, read-out: Inhibition of ligand binding, Serotonin 5-HT6 (percent inhibition of specific binding)", "result": 22, "unit": "%"},
      {"measurement": "inhibition at 1 µM", "setting": "[4]; compound at 1 μM, read-out: Inhibition of ligand binding, Serotonin 5-HT6 (percent inhibition of specific binding)", "result": 68, "unit": "%"},
      {"measurement": "inhibition at 0.1 µM", "setting": "[5]", "result": 92, "unit": "%"},
      {"measurement": "Inhibition of ligand binding, Serotonin 5-HT2A (percent inhibition of specific binding)", "setting": "[6]; compound at 0.1 μM, 0.1 µM", "result": 98, "unit": "%"},
      {"measurement": "inhibition at 0.1 µM", "setting": "[6]; read-out: Inhibition of ligand binding, Serotonin 5-HT2A (percent inhibition of specific binding), compound at 0.1 μM", "result": 88, "unit": "%"}
    ]},
    {"smiles": "Cc1nc2n(c(=O)c1CCN1CCC(c3noc4cc(F)ccc34)CC1)CCCC2", "note": "[risperidone, reference compound]", "values": [
      {"measurement": "number of avoidance responses, change versus pretreatment", "setting": "male Wistar rat", "result": "−61", "unit": "%"},
      {"measurement": "number of intertrial crossings, change versus pretreatment", "setting": "male Wistar rat", "result": "−69", "unit": "%"},
      {"measurement": "number of escape failures", "setting": "male Wistar rat; increased in 7/12 animals, 0±0 before treatment", "result": "4±1", "unit": "escape failures"}
    ]}
  ]
}
